Data from the supplement of paper PMC10307832.

Key:
Experiment in all cases: relative viability (nuclei count vs DMSO), 5 days (fraction); higher = more cells survive
[1] = system: 201T
Procedure, shortened: (§1)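 Values are medians from duplicate plates. Each reflects relative viability, defined as the nuclei count of treated wells over that of vehicle wells. Lung cancer cell lines in 1536-well plates were pin-tool dosed one day after seeding with one drug alone or with a fixed anchor-drug dose plus five library-drug doses (not always all listed) in √10 steps, then fixed, stained and imaged at 4× after 5 days.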

[2] = system: A-427
Procedure, shortened: as §1

[3] = system: ABC-1
Procedure, shortened: as §1

[4] = system: BEN
Procedure, shortened: as §1

[5] = system: CAL-12T
Procedure, shortened: as §1

[6] = system: H3255
Procedure, shortened: as §1

[7] = system: LC-2-ad
Procedure, shortened: as §1

[8] = system: LCLC-97TM1
Procedure, shortened: as §1

[9] = system: NCI-H1650
Procedure, shortened: as §1

[10] = system: NCI-H1651
Procedure, shortened: as §1

[11] = system: NCI-H1792
Procedure, shortened: as §1

[12] = system: NCI-H1915
Procedure, shortened: as §1

[13] = system: NCI-H1944
Procedure, shortened: as §1

[14] = system: NCI-H2023
Procedure, shortened: as §1

[15] = system: NCI-H2087
Procedure, shortened: as §1

[16] = system: NCI-H441
Procedure, shortened: as §1

[17] = system: NCI-H460
Procedure, shortened: as §1

[18] = system: NCI-H520
Procedure, shortened: as §1

[19] = system: NCI-H596
Procedure, shortened: as §1

[20] = system: NCI-H650
Procedure, shortened: as §1

[21] = system: NCI-H661
Procedure, shortened: as §1

[22] = system: NCI-H727
Procedure, shortened: as §1

[23] = system: PC-3 [JPC-3]
Procedure, shortened: as §1

With `CC1(C)CCC(c2ccc(Cl)cc2)=C(CN2CCN(c3ccc(C(=O)NS(=O)(=O)c4ccc(N[C@H](CCN5CCOCC5)CSc5ccccc5)c(S(=O)(=O)C(F)(F)F)c4)cc3)CC2)C1` [Navitoclax] + CCNC(=O)c1noc(-c2cc(C(C)C)c(O)cc2O)c1-c1ccc(CN2CCOCC2)cc1 [Luminespib] (partner 0.01 µM) the relative viability ([1]; first compound 0.005 µM) was 1.05, the relative viability ([1]; first compound 0.01581 µM) was 1.1 and the relative viability ([1]; first compound 0.05 µM) was 0.982. The relative viability ([1]; first compound 0.1581 µM) was 1.03, the relative viability ([1]; first compound 0.5 µM) was 1.08 and the relative viability ([2]; first compound 0.005 µM) was 0.902. The relative viability ([2]; first compound 0.01581 µM) was 0.833, the relative viability ([2]; first compound 0.05 µM) was 0.804 and the relative viability ([2]; first compound 0.1581 µM) was 0.908. It also gave a relative viability ([2]; first compound 0.5 µM) of 0.948, a relative viability ([3]; first compound 0.005 µM) of 0.596 and a relative viability ([3]; first compound 0.01581 µM) of 0.909. It also gave a relative viability ([3]; first compound 0.05 µM) of 0.677, a relative viability ([3]; first compound 0.5 µM) of 0.6 and a relative viability ([4]; first compound 0.005 µM) of 0.269. It also gave a relative viability ([4]; first compound 0.01581 µM) of 0.271, a relative viability ([4]; first compound 0.05 µM) of 0.22 and a relative viability ([4]; first compound 0.1581 µM) of 0.266. The relative viability ([4]; first compound 0.5 µM) was 0.0778, the relative viability ([5]; first compound 0.005 µM) was 0.308 and the relative viability ([5]; first compound 0.01581 µM) was 0.563. The relative viability ([5]; first compound 0.05 µM) was 0.708, the relative viability ([5]; first compound 0.1581 µM) was 0.826 and the relative viability ([5]; first compound 0.5 µM) was 0.251. It also gave a relative viability ([6]; first compound 0.005 µM) of 0.874, a relative viability ([6]; first compound 0.01581 µM) of 0.877 and a relative viability ([6]; first compound 0.05 µM) of 0.834. The relative viability ([6]; first compound 0.1581 µM) was 0.869, the relative viability ([6]; first compound 0.5 µM) was 0.741 and the relative viability ([7]; first compound 0.005 µM) was 0.993. The relative viability ([7]; first compound 0.01581 µM) was 1.16, the relative viability ([7]; first compound 0.05 µM) was 0.912 and the relative viability ([7]; first compound 0.1581 µM) was 0.907. For the same compound, the relative viability ([7]; first compound 0.5 µM) was 0.856, the relative viability ([8]; first compound 0.005 µM) was 0.74 and the relative viability ([8]; first compound 0.01581 µM) was 0.8. It also gave a relative viability ([8]; first compound 0.05 µM) of 0.733, a relative viability ([8]; first compound 0.1581 µM) of 0.779 and a relative viability ([8]; first compound 0.5 µM) of 0.857. It also gave a relative viability ([9]; first compound 0.005 µM) of 0.214, a relative viability ([9]; first compound 0.01581 µM) of 0.21 and a relative viability ([9]; first compound 0.05 µM) of 0.167. The relative viability ([9]; first compound 0.1581 µM) was 0.206, the relative viability ([9]; first compound 0.5 µM) was 0.192 and the relative viability ([10]; first compound 0.005 µM) was 0.966. For the same compound, the relative viability ([10]; first compound 0.01581 µM) was 0.971, the relative viability ([10]; first compound 0.05 µM) was 0.563 and the relative viability ([10]; first compound 0.1581 µM) was 0.809. For the same compound, the relative viability ([10]; first compound 0.5 µM) was 0.712, the relative viability ([11]; first compound 0.005 µM) was 0.456 and the relative viability ([11]; first compound 0.01581 µM) was 0.685. For the same compound, the relative viability ([11]; first compound 0.05 µM) was 0.351, the relative viability ([11]; first compound 0.5 µM) was 0.527 and the relative viability ([12]; first compound 0.005 µM) was 0.749. It also gave a relative viability ([12]; first compound 0.01581 µM) of 0.778, a relative viability ([12]; first compound 0.05 µM) of 0.793 and a relative viability ([12]; first compound 0.1581 µM) of 0.746. It also gave a relative viability ([12]; first compound 0.5 µM) of 0.829, a relative viability ([13]; first compound 0.005 µM) of 0.731 and a relative viability ([13]; first compound 0.01581 µM) of 0.717. The relative viability ([13]; first compound 0.05 µM) was 0.553, the relative viability ([13]; first compound 0.1581 µM) was 0.733 and the relative viability ([13]; first compound 0.5 µM) was 0.665. The relative viability ([14]; first compound 0.005 µM) was 0.782, the relative viability ([14]; first compound 0.01581 µM) was 0.921 and the relative viability ([14]; first compound 0.05 µM) was 0.83. It also gave a relative viability ([14]; first compound 0.1581 µM) of 0.568, a relative viability ([14]; first compound 0.5 µM) of 0.594 and a relative viability ([15]; first compound 0.005 µM) of 0.207. It also gave a relative viability ([15]; first compound 0.01581 µM) of 0.204, a relative viability ([15]; first compound 0.1581 µM) of 0.153 and a relative viability ([15]; first compound 0.5 µM) of 0.208. The relative viability ([16]; first compound 0.005 µM) was 0.294, the relative viability ([16]; first compound 0.01581 µM) was 0.288 and the relative viability ([16]; first compound 0.05 µM) was 0.42. For the same compound, the relative viability ([16]; first compound 0.1581 µM) was 0.351, the relative viability ([16]; first compound 0.5 µM) was 0.336 and the relative viability ([17]; first compound 0.005 µM) was 0.0372. For the same compound, the relative viability ([17]; first compound 0.01581 µM) was 0.0368, the relative viability ([17]; first compound 0.05 µM) was 0.0365 and the relative viability ([17]; first compound 0.1581 µM) was 0.0311. The relative viability ([17]; first compound 0.5 µM) was 0.033, the relative viability ([18]; first compound 0.005 µM) was 0.249 and the relative viability ([18]; first compound 0.01581 µM) was 0.234. For the same compound, the relative viability ([18]; first compound 0.05 µM) was 0.268, the relative viability ([18]; first compound 0.1581 µM) was 0.235 and the relative viability ([18]; first compound 0.5 µM) was 0.229. For the same compound, the relative viability ([19]; first compound 0.005 µM) was 0.34, the relative viability ([19]; first compound 0.01581 µM) was 1.14 and the relative viability ([19]; first compound 0.1581 µM) was 0.867. For the same compound, the relative viability ([19]; first compound 0.5 µM) was 0.443, the relative viability ([20]; first compound 0.005 µM) was 0.794 and the relative viability ([20]; first compound 0.01581 µM) was 0.862. The relative viability ([20]; first compound 0.05 µM) was 0.682, the relative viability ([20]; first compound 0.1581 µM) was 0.786 and the relative viability ([20]; first compound 0.5 µM) was 0.827. For the same compound, the relative viability ([21]; first compound 0.005 µM) was 0.94, the relative viability ([21]; first compound 0.01581 µM) was 0.853 and the relative viability ([21]; first compound 0.05 µM) was 0.971. For the same compound, the relative viability ([21]; first compound 0.1581 µM) was 0.775, the relative viability ([21]; first compound 0.5 µM) was 0.884 and the relative viability ([22]; first compound 0.01581 µM) was 0.347. For the same compound, the relative viability ([22]; first compound 0.1581 µM) was 0.275, the relative viability ([22]; first compound 0.5 µM) was 0.28 and the relative viability ([23]; first compound 0.005 µM) was 0.738. It also gave a relative viability ([23]; first compound 0.01581 µM) of 0.807, a relative viability ([23]; first compound 0.05 µM) of 0.765 and a relative viability ([23]; first compound 0.1581 µM) of 0.684. For the same compound, the relative viability ([23]; first compound 0.5 µM) was 0.724.
